Assay results reported in patent US11730712B2, “Functionalized long-chain hydrocarbon mono- and di-carboxylic acids and derivatives thereof, and their use for the prevention or treatment of disease” (ESPERVITA THERAPEUTICS, INC., priority 2021, dated 2023).
“Also recorded” adds a separate entry of the source.

Assays:
[1] = Single and repeat dose plasma and tissue pharmacokinetics in male C57BL/6 mice; assay type: in vivo, mouse
From the text: Materials and methods. The study involved two arms; a single dose pharmacokinetic study and a 4-day repeated-dose pharmacokinetic study. For each arm, 56 inbred male C57BL/6 mice, aged at 6-7 week, were included. All animals were purchased from Charles River Lab (CRL, MA). Upon their arrival, they were kept in special-pathogen-free environment all the time. Briefly, they were housed in group on corncob bedding (ScottPharma, MA) in Innovive® caging system (Innovive, Calif.) on a 12-hour light-dark cycle (0700-1900) at 68-74° F., and 30-70% humidity. They were allowed continually to access water and regular rodent Purina 5001 diet (ScottPharma, MA) ad libitum and to acclimate in the facility for 5 days. Animal handling and procedures were conducted under the protocols and/or guidelines approved by the Institutional Animal Care and Use Committee (IACUC) of […] Biosciences, Inc. […] Also, 2× drug vehicle (3% CMC+0.4% Tween-20) was prepared and stored at 4° C. for a week. On the day of injection, 1 ml frozen 2× aqueous stock solution (20 mg/ml drug solution) aliquot is thawed and mix with another 1 ml 2× drug vehicle (3% Carboxymethyl cellulose+0.4% Tween 20) to prepare 10 mg/ml drug solution. A 25 g mouse would receive 250 μl of 10 mg/ml solution for a dose of 100 mg/kg. Lower concentrations can be achieved by further diluting the 10 mg/ml in 1× vehicle solution with 1× vehicle prepared with milliQ water. On each dosing day, both compound stocks and 2× vehicle were warmed to room temperature and was mixed at 1:1 ratio, given to a concentration of 10 mg/mL. Then 1: 5-fold dilutions were obtained with 1× vehicle to 2 mg/mL. Dosing volume at 10 mL/kg (final dosage: 20 mg/kg) in the morning. […] Study Design. In each group 4 male 6-7-week-old C57BL/6 mice were used. Doses were administered once daily via oral gavage for either a day (single dose arm, QD×1) or 4 consecutive days (repeated dose arm, QD×4) (FIG. 26). Blood, half of brain hemisphere, and one lobe of liver samples were collected from all animals of Day 1 (QD×1 arm) at pre-dose and 0.25, 2, 4, 8, 24 and 36 hours post dose, or Day 4 (QD×4 arm) at pre-dose and 0.25, 2, 4, 8, 24 and 48 hours post dose. Blood samples were collected by cardiac puncture. The blood samples were maintained in wet ice first and centrifuged to obtain plasma (2000×g, 4° C., 5 min). All three samples from each mouse were analyzed for either Compound I-1 or Compound I-32 contents by Integrated Analytical Solutions (Berkeley, Calif.) and the results were used for the generation of the pharmacokinetic graphs. Sample collection, storage, bioanalysis and statistical analysis. All plasma and tissue samples were analyzed by discovery grade bioanalytical method developed for estimation of each test compound in plasma and tissue samples using LC-MS/MS systems. Plasma samples were prepared as follows. Three volumes of acetonitrile containing internal standard was added to one volume of plasma to precipitate proteins. Samples were centrifuged (3000×g for 10 min) and supernatant removed for analysis by LC-MS/MS. Calibration standards and quality controls were made by preparation of a 1 mg/mL stock solution in MeOH and subsequently a series of working solutions in MeOH:water (1/1, v/v) which were spiked into blank plasma to yield a series of calibration standard samples in the range of 1.0 ng/mL to 10 μg/mL. All incurred PK/PD plasma samples were treated identically to the calibration standards and quality control samples. LC-MS/MS analysis was performed utilizing multiple reaction monitoring for detection of characteristic ions for each drug candidate, additional related analytes and internal standard. Tissue samples were prepared as follows, three volumes of PBS buffer (pH 7.4) were added to one volume of each tissue sample which was then homogenized to obtain each tissue homogenate sample. […]

[2] = Toxicokinetics in female rat plasma (4-day oral gavage study, Day 1); assay type: in vivo; conditions: for dose proportionality of increases in mean Cmax and AUC0-24: 100 to 300 mg/kg/day
Experimental: Bioanalytical and Toxicokinetic Analyses. Blood samples (approximately 0.3 mL) were collected from nonfasted toxicokinetic animals via a jugular vein on Day 1 of the dosing phase, as indicated in the following table. Samples were collected predose and approximately 1, 2, 4, and 24 hours postdose.
Blood was collected into tubes containing potassium (K2) EDTA as the anticoagulant. Samples were maintained on chilled cryoracks and were centrifuged within 1 hour of collection. Plasma was harvested into two approximately equal aliquots and stored on dry ice until placed in a freezer, set to maintain −60 to −80° C., until analyzed. Plasma samples were analyzed for Compound I-1 and Compound I-32 content using a generic Tier 1 qualified liquid chromatography-tandem mass spectrometry (LC-MS/MS) method.
In-Life Phase. Animals were dosed once daily for up to 4 days via oral gavage at a volume of 10 mL/kg. Animals in Group 2 and 3 were administered Compound I-1. Animals in Group 4 and 5 were administered Compound I-32. The control article for Group 1 was 1.5% (w/v) carboxymethyl cellulose+0.2% (v/v) Tween 20 in deionized (DI) water. The vehicle used to prepare Compound I-1 and Compound I-32 formulations was 3% (w/v) carboxymethyl cellulose+0.4% (v/v) Tween 20 in DI water.

female Wistar Han rats = assay: 4-day oral gavage toxicity study in female rats; conditions: for clinical chemistry: globulin concentration and albumin:globulin ratio: 100 mg/kg/day Compound I-1 or 300 mg/kg/day Compound I-1 or Compound I-32; for compound-related effects in hematology or coagulation test results / compound-related mortality, clinical observations, body weight effects, changes in food consumption / dose whose effects were considered nonadverse: female rats, 4 days; for compound-related effects in hematology or coagulation test results / compound-related mortality, clinical observations, body weight effects, changes in food consumption: 100 or 300 mg/kg/day oral gavage; for dose whose effects were considered nonadverse: oral gavage; for microscopic findings in the liver: ≥100 mg/kg/day Compound I-1 or 300 mg/kg/day Compound I-32
[3] = male, C57BL/6, mouse brain, 20 mg/kg/day PO, repeat dose QD × 4
[4] = male, C57BL/6, mouse liver, 20 mg/kg PO, single dose QD × 1
[5] = male, C57BL/6, mouse liver, 20 mg/kg/day PO, repeat dose QD × 4
[6] = male, C57BL/6, mouse plasma, 20 mg/kg PO, single dose QD × 1
[7] = male, C57BL/6, mouse plasma, 20 mg/kg/day PO, repeat dose QD × 4
[8] = mouse brain, 20 mg/kg PO, single dose QD × 1
[9] = mouse brain, 20 mg/kg/day PO, repeat dose QD × 4
[10] = mouse liver, 20 mg/kg PO, single dose QD × 1
[11] = mouse liver, 20 mg/kg/day PO, repeat dose QD × 4
[12] = female rat plasma, 100 mg/kg/day oral gavage, Day 1

SMILES | half-life [1, 4] | half-life [1, 5] | half-life [1, 6] | half-life [1, 7] | AUC0-t [1, 8] | AUC0-t [1, 9] | AUC0-t [1, 10] | AUC0-t [1, 11] | dose proportionality of increases in mean Cmax and AUC0-24 ([2]; female rat) | clinical chemistry: globulin concentration and albumin:globulin ratio (female Wistar Han rats) | compound-related effects in hematology or coagulation test results (female Wistar Han rats) | compound-related mortality, clinical observations, body weight effects, changes in food consumption (female Wistar Han rats) | dose whose effects were considered nonadverse (female Wistar Han rats) | microscopic findings in the liver (female Wistar Han rats) | further results
CC(C)(CCCCc1ccc(CCCCC(C)(C)C(=O)O)cc1)C(=O)O [Compound I-1, 6-[4-(5-carboxy-5-methylhexyl)-phenyl]-2,2-dimethylhexanoic acid] | 576 min | 1220 min | 918 min | 1320 min | 1,183 h*ng/g | 1,220 h*ng/g | 425,184 h*ng/g | 687,414 h*ng/g | less than dose proportional | minimally lower globulin concentration and minimally higher albumin:globulin ratio | No Compound I-1- or Compound I-32-related effects in hematology or coagulation test results were identified | No Compound I-1- or Compound I-32-related mortality, clinical observations, body weight effects, or changes in food consumption were noted | 100 mg/kg/day | increase in mitoses in hepatocytes | Cmax [1, 3]: 169 ng/g; AUC0-t ([1]; mouse brain, 20 mg/kg PO, QD × 1, value in brackets with * (reanalysis)): (2,091)* h*ng/g; AUC0-t ([1]; mouse brain, 20 mg/kg/day PO, QD × 4, value in brackets with * (reanalysis)): (3,995)* h*ng/g; AUC0-t ([1]; mouse liver, 20 mg/kg PO, QD × 1, timepoint 0.25 h samples after reanalysis): (469,726)* h*ng/g; AUC0-t ([1]; mouse liver, 20 mg/kg/day PO, QD × 4, timepoint 0.25 h samples after reanalysis): (718,455)* h*ng/g; AUC0-24 [2, 12]: 5,460,000 h*ng/mL; Tmax [2, 12]: 2.00 h; Tmax ([2]; female rat plasma, 300 mg/kg/day oral gavage, Day 1): 1.00 h; microscopic findings in the kidney (female Wistar Han rats; 300 mg/kg/day): tubular degeneration/necrosis, tubular regeneration, and increased mitoses
CC(C)(CCCCc1cccc(CCCCC(C)(C)C(=O)O)c1)C(=O)O [Compound I-32, 6-[3-(5-carboxy-5-methylhexyl)-phenyl]-2,2-dimethylhexanoic acid] | 780 min | 960 min | 540 min | 552 min | 1,527 h*ng/g | 6,304 h*ng/g | 405,934 h*ng/g | 1.01e+06 ng·h/g | approximately dose proportional | minimally lower globulin concentration and minimally higher albumin:globulin ratio | No Compound I-1- or Compound I-32-related effects in hematology or coagulation test results were identified | No Compound I-1- or Compound I-32-related mortality, clinical observations, body weight effects, or changes in food consumption were noted | 300 mg/kg/day | increase in mitoses in hepatocytes; also recorded: periportal hepatocyte vacuolation | half-life ([1]; male, C57BL/6, mouse brain, 20 mg/kg PO, single dose QD × 1): 180 min; half-life [1, 3]: 480 min; Cmax ([2]; Wistar Han, plasma, oral, female rat, 300 mg/kg/day, Day 1, read-out: mean maximum observed concentration (Cmax)): 406 µg/mL; clinical chemistry: serum urea nitrogen concentration (female Wistar Han rats; 300 mg/kg/day): Minimally lower serum urea nitrogen concentration
